Measured values from BindingDB's records for doi:10.1046/j.1471-4159.1994.63020456.x (Syntex Discovery Research, 1994).
pKi: −log10 of the molar value.

Molecular target: 5-hydroxytryptamine receptor 7 (Cavia porcellus, UniProt P50407)
Sequence (P50407 whole entry): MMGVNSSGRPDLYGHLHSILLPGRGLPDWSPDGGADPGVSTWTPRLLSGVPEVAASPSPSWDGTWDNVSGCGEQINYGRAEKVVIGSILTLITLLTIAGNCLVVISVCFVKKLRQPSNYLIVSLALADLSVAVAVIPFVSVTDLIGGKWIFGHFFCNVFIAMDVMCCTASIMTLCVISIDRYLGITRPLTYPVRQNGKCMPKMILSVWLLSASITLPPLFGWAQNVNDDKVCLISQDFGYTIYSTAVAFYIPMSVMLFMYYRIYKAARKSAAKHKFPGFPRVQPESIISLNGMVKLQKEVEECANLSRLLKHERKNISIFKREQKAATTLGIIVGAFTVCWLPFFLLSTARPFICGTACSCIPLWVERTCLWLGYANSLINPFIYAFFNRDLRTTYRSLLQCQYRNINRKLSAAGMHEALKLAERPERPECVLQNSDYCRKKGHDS

SMILES	pKi
CCCN(CCC)C1CCc2cccc(O)c2C1 (configuration not stated)	7.30
CC[C@@H](CO)NC(=O)[C@@H]1C=C2c3cccc4c3c(cn4C)C[C@H]2N(C)C1	7.40
CN(C)CCc1c[nH]c2ccc(O)cc12 [3-[2-(dimethylamino)ethyl]indol-5-ol]	7.70
O=C(CCCN1CCC2(CC1)C(=O)NCN2c1ccccc1)c1ccc(F)cc1 [8-[4-(4-fluorophenyl)-4-oxidanylidene-butyl]-1-phenyl-1,3,8-triazaspiro[4.5]decan-4-one]	7.00
CNS(=O)(=O)Cc1ccc2[nH]cc(CCN(C)C)c2c1 [Sumax]	6.60
NCCc1c[nH]c2ccc(O)cc12 [[3H]-5-HT]	9.00
COc1ccc2[nH]cc(CCN)c2c1 [tryptamine, 5-Methoxy]	9.00
